In ChEMBL document CHEMBL3102851, “Trinorditerpenes from the roots of Flueggea virosa” (Bioorg Med Chem Lett, 2014):

Columns and labels:
[1] = Antiinflammatory activity in human neutrophils assessed as FMLP/cytochalasin B-induced elastase release after 5 mins by spectrophotometry; assay type: functional, cell-based; details: Neutrophil
[2] = Cytotoxicity against human Huh7.5 cells; assay type: cell-based; details: Huh-7
Hepatitis C virus = assay: Antiviral activity against HCV infected in human Huh7.5 cells; assay type: functional, organism-based, Hepacivirus hominis; details: Huh-7
[3] = Antiinflammatory activity in human neutrophils assessed as FMLP/cytochalasin B-induced superoxide anion generation after 5 mins by spectrophotometry; assay type: functional, cell-based; details: Neutrophil

SMILES	IC50 [1] [µM]	IC50 [2] [µM]	EC50 (Hepatitis C virus) [µM]	IC50 [3] [µM]
Cc1cc2ccc3c(c2cc1O)CCC(=O)C3(C)C	4.3	26.9	13	4.4
COc1cc2c3c(ccc2cc1C)C(C)(C)C(O)CC3 (racemic)	9.6	64.8	23.6	> 30
C=CCc1ccc(O)c(-c2ccc(O)c(CC=C)c2)c1 [HONOKIOL]		58.5	9.4	
CNC(=O)c1cc(Oc2ccc(NC(=O)Nc3ccc(Cl)c(C(F)(F)F)c3)cc2)ccn1 [SORAFENIB]	2			3.2
